Like-named read-outs stand apart in the source and are kept apart here.
Key:
Format in all cases: biochemical
Recombinant human HDAC8 = biological target: T1, Recombinant human HDAC8 (Homo sapiens, UniProt Q9BY41); assay: Human HDAC enzyme inhibitor Fluor-de-Lys assay, HDAC8
T1 construct: purchased Enzo Life Sciences BML-SE145-0100
T1 sequence (Q9BY41 1-377): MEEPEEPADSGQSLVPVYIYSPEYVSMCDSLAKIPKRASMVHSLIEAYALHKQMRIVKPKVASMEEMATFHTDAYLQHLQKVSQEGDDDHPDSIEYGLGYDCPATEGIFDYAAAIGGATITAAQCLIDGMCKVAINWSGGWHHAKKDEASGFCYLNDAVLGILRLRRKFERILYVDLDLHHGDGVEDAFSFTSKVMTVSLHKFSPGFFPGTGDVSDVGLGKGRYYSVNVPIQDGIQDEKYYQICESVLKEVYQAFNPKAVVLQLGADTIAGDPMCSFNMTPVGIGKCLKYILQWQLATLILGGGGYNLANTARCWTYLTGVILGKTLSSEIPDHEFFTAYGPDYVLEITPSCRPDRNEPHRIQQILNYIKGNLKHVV

HDAC6 = biological target: T2, HDAC6 (Homo sapiens, UniProt Q9UBN7); assay: Human HDAC enzyme inhibitor Fluor-de-Lys assay, HDAC6
T2 sequence (Q9UBN7 1-1215): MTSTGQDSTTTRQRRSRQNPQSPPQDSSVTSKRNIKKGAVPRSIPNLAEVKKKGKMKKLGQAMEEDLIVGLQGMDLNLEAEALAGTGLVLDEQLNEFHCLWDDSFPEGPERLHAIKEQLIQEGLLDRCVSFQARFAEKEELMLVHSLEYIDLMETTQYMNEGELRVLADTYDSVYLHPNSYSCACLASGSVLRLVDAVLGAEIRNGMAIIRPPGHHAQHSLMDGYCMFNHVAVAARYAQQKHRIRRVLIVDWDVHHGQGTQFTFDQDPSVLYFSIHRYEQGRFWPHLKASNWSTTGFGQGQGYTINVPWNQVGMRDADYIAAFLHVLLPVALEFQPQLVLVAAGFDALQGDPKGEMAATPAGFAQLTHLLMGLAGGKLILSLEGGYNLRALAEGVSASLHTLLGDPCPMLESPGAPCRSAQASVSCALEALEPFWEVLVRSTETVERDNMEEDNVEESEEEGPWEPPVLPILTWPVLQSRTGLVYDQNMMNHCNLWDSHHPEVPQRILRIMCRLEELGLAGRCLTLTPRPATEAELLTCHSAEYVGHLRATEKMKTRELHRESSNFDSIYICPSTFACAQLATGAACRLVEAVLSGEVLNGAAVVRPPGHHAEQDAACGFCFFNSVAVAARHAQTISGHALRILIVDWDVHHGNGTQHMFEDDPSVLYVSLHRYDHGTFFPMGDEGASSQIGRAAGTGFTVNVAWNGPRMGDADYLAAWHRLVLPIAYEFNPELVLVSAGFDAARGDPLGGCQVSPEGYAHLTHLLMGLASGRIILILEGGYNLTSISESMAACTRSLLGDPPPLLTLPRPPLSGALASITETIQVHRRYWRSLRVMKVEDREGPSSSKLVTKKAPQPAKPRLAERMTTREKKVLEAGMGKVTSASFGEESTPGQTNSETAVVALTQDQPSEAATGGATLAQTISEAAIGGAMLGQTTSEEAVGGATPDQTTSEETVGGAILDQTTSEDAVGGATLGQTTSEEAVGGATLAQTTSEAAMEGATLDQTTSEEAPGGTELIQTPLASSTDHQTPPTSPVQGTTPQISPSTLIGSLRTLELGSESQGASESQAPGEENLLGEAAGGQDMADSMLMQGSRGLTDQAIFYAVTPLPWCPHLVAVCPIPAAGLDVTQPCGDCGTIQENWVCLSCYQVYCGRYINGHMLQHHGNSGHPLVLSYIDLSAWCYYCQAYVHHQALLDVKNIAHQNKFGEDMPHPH

Recombinant human HDAC2 = biological target: T3, Recombinant human HDAC2 (Homo sapiens, UniProt Q92769); assay: Human HDAC enzyme inhibitor Fluor-de-Lys assay, HDAC2
T3 construct: Full length human HDAC2-FLAG was expressed in baculovirus infected Sf9 cells; FLAG (C); made in house; host or cells: Sf9 (baculovirus)
T3 sequence (Q92769 whole entry): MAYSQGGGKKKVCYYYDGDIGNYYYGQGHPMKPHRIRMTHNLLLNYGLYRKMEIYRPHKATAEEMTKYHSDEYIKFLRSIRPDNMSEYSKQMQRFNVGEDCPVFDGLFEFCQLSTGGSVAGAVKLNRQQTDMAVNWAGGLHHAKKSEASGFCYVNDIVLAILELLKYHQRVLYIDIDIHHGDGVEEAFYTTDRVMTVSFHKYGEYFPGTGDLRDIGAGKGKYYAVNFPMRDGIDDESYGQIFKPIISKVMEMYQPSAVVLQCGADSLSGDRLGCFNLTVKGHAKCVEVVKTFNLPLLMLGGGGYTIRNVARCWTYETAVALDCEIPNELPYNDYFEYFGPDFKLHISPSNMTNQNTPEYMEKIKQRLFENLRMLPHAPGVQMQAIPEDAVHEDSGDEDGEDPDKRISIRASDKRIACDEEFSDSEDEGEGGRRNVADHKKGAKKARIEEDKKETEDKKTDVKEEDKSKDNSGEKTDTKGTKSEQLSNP
Outline: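 Fluor-de-Lys format at room temperature (23° C.): compounds titrated 10-point, 1:3, preincubated with HDAC before substrate addition. Developer with excess HDAC inhibitor ends the reaction, and trypsin-liberated AMC fluorescence is the read-out.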

[1] = biological target: T4, Recombinant human HDAC3/SMRT heterodimer (Homo sapiens, UniProt O15379); assay: Human HDAC enzyme inhibitor Fluor-de-Lys assay, HDAC3/SMRT
T4 construct: FLAG (C); made in house
T4 sequence (O15379 whole entry): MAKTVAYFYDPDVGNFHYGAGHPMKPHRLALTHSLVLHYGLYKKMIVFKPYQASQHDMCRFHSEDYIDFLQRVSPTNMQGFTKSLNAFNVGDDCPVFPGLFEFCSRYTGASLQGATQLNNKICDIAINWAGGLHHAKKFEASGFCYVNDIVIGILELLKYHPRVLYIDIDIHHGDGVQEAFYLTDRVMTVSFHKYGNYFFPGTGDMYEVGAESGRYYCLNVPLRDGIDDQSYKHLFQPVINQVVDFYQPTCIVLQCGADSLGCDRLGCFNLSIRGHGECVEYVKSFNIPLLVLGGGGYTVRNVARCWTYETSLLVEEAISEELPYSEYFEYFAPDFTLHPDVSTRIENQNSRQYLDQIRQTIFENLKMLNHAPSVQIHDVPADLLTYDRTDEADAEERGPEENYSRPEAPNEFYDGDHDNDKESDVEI
T4 sequence (Q9Y618 1-899 partner limits assumed): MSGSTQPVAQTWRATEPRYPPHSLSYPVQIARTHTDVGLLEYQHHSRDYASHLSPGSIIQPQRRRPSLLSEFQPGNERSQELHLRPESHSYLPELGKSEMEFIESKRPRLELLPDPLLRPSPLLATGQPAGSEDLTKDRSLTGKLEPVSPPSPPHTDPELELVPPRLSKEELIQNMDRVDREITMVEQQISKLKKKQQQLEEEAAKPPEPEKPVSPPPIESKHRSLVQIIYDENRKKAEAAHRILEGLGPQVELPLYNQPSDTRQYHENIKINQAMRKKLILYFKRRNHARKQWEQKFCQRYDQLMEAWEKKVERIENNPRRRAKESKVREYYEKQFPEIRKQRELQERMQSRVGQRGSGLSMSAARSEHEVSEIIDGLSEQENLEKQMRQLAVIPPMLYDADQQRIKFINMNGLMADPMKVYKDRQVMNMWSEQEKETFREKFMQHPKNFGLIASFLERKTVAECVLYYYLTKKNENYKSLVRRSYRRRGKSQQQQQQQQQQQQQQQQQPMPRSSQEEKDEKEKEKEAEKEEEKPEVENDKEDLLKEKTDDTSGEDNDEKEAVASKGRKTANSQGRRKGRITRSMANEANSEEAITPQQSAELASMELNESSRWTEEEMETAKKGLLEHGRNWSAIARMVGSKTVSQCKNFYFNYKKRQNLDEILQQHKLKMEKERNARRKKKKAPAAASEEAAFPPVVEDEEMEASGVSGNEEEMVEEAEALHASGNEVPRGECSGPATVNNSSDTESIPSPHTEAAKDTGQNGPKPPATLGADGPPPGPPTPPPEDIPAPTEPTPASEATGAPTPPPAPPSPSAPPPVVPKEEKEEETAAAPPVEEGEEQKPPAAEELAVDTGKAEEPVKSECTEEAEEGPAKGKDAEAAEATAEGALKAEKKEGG

[2] = recombinant human HDAC8, Fluor-de-Lys assay
[3] = recombinant human HDAC2, Fluor-de-Lys assay
[4] = recombinant human HDAC3/SMRT, Fluor-de-Lys assay

Compound	IC50 (Recombinant human HDAC8)	IC50 (HDAC6)	IC50 (Recombinant human HDAC2)	IC50 [1]	IC50 (Recombinant human HDAC8; [2])	IC50 (HDAC6; HDAC6, Fluor-de-Lys assay)	IC50 (Recombinant human HDAC2; [3])	IC50 [1, 4]
CCC(=O)CCCCC[C@H](NC(=O)[C@H]1CC12CCN(C(C)C)CC2)c1ncc(-c2ccc3nc(C4CC4)ccc3c2)[nH]1 [Compound 100]	8250 nM	11900 nM	< 1.5 nM	< 1.5 nM				
CCCC(=O)CCCCC[C@H](NC(=O)[C@H]1CC12CCN(C)CC2)c1ncc(-c2ccc(F)cc2)[nH]1 [Compound 239]					20600 nM	> 45000 nM	77.4 nM	15.3 nM
CCC(=O)CCCCC[C@H](NC(=O)[C@H]1CC12CCN(CC)CC2)c1ncc(-c2ccc3nn(C4CC4)cc3c2)[nH]1 [Compound 238]					6500 nM	7780 nM	1.9 nM	0.27 nM
CCC(=O)CCCCC[C@H](NC(=O)[C@H]1CC12CCN(C(C)C)CC2)c1ncc(-c2ccc3nc(C)ccc3c2)[nH]1 [Compound 83]	15200 nM	2620 nM	< 1.5 nM	< 1.5 nM				
CCC(=O)CCCCC[C@H](NC(=O)[C@H]1CC12CCN(C)CC2)c1ncc(-c2ccccc2F)[nH]1 [Compound 290]					5230 nM	5990 nM	73.5 nM	4.08 nM
CCC(=O)CCCCC[C@H](NC(=O)C1=NOC2(CCN(CC)CC2)C1)c1ncc(-c2cc3ccc(=O)n(C)c3cc2OC)o1 [Compound 235]					> 900 nM	> 900 nM	12.4 nM	2.19 nM
CCC(=O)CCCCC[C@H](NC(=O)CC1CC2(CNC2)C1)c1ncc(-c2ccccc2)[nH]1 [Compound 297]					8460 nM	8170 nM	120 nM	9.69 nM
CCCn1cc(-c2[nH]c(-c3ccc(F)cc3)nc2C(CCCCCC(=O)CC)NC(=O)C2CC23CCN(CC)CC3)cn1 (stereo not drawn) [Compound 254]					38700 nM	> 45000 nM	131 nM	29.6 nM
CCC(=O)CCCCC[C@H](NC(=O)[C@H]1CC12CCN(C)CC2)c1ncc(-c2ccc(C(F)(F)F)cc2)[nH]1 [Compound 284]					15000 nM	13400 nM	82.1 nM	6.09 nM
CCC(=O)CCCCC[C@H](NC(=O)C1CCC2(CC1)CN(C(C)C)C2)c1ncc(-c2cc3ccccc3nc2OC)[nH]1 [Compound 272]					1250 nM	449 nM	8.2 nM	< 1.5 nM
CCC(=O)CCCCC[C@H](NC(=O)[C@H]1CC12CCN(C)CC2)c1ncc(-c2cnc(OC)nc2)[nH]1 [Compound 255]					5790 nM	12100 nM	491 nM	81.9 nM
CCC(=O)CCCCC[C@H](NC(=O)C1CCC2(CC1)CNC2)c1nnc(-c2cc3ccccc3nc2OC)o1 [Compound 299]					27800 nM	2360 nM	35.8 nM	6.56 nM
CCC(=O)CCCCC[C@H](NC(=O)[C@H]1CC12CCN(C(C)C)CC2)c1ncc(-c2ccc3c(ccc(=O)n3C)c2)o1 [Compound 96]	> 45000 nM	7300 nM	44.5 nM	9.9 nM				
CCC(=O)CCCCC[C@H](NC(=O)C1=NOC2(CCN(CC)CC2)C1)c1ncc(-c2cc3ccc(C)nc3cc2F)o1 [Compound 269]					> 900 nM	> 900 nM	36.7 nM	8.3 nM
CCC(=O)CCCCC[C@H](NC(=O)CC1CC2(C1)CN(C(C)C)C2)c1ncc(-c2cc3ccccc3nc2OC)[nH]1 [Compound 273]					1960 nM	400 nM	3.4 nM	< 1.5 nM
CCC(=O)CCCCCC(NC(=O)C1CC12CCN(CC)CC2)c1nc(-c2ccc(F)cc2)[nH]c1-c1ccnn1C (stereo not drawn) [Compound 253]					26800 nM	> 45000 nM	111 nM	16.7 nM
CCC(=O)CCCCC[C@H](NC(=O)[C@H]1CC12CCN(C)CC2)c1nc(Cl)c(-c2cc3ccccc3nc2O)[nH]1 [Compound 81, (1S)—N-{(1S)-1-[4-chloro-5-(2-hydroxyquinolin-3-yl)-1H-imidazol-2-yl]-7-oxononyl}-6-methyl-6-azaspiro[2.5]octane-1-carboxamide]	5350 nM	3870 nM	337 nM	69 nM				
CCC(=O)CCCCC[C@H](NC(=O)C1=NOC2(CCN(CC3CC3)CC2)C1)c1ncc(-c2cc3ccc(=O)n(C)c3cc2OC)o1 [Compound 236]					> 900 nM	> 900 nM	9.9 nM	1.07 nM
CCC(=O)CCCCC[C@H](NC(=O)C1=NOC2(CCN(CC3CC3)CC2)C1)c1ncc(-c2cc3ccc(C)nc3cc2OC)o1 [Compound 225]					> 900 nM	759 nM	6.2 nM	1.14 nM
CCC(=O)CCCCC[C@H](NC(=O)[C@H]1CC12CCN(C)CC2)c1ncc(-c2ccc3nc(C)ccc3c2)o1 [Compound 80]	> 45000 nM	1680 nM	14.8 nM	2.96 nM				
CCC(=O)CCCCC[C@H](NC(=O)C1=NOC2(CCN(CC)CC2)C1)c1ncc(-c2cc3ccc(C)nc3cc2F)[nH]1 [Compound 233]					> 900 nM	> 900 nM	25.2 nM	8.8 nM
CCC(=O)CCCCC[C@H](NC(=O)[C@H]1CC12CCN(CC)CC2)c1ncc(-c2ccc(-c3nccs3)cc2)o1 [Compound 93]	31800 nM	955 nM	25.6 nM	5.76 nM				
CCC(=O)CCCCC[C@H](NC(=O)[C@H]1CC12CCN(C)CC2)c1ncc(-c2ccc3c(c2)c2ccccc2n3C)[nH]1 [Compound 265]					4600 nM	630 nM	12.4 nM	3.86 nM
CCC(=O)CCCCC[C@H](NC(=O)[C@H]1CC12CCN(CC)CC2)c1ncc(-c2cnc3cc(C(F)(F)F)ccc3c2)[nH]1 [Compound 341]					11900 nM	8970 nM	2.5 nM	0.43 nM

Source: patent US12590099B2, “Inhibitors of histone deacetylase useful for the treatment or prevention of HIV infection” (Merck Sharp & Dohme LLC, priority 2018, dated 2026)
